Data set [1] has as its system SKOV3 (human ovarian carcinoma). As to the kind of experiment: CCK-8 cytotoxicity assay, SKOV3. It counts as cell-based. To be noted: SK-OV-3, SKOV3 cells, 48h. An excerpt:
(§1) The cytotoxic effects of the newly synthesized diphenyl(tetrahydro-5H-indeno[2,1-c]quinolin-2-yl)phosphine oxides 8, diphenyl(7H-indeno[2,1-c]quinolin-2-yl)phosphine oxides 9, and diphenyl(7-oxo-7H-indeno[2,1-c]quinolin-2-yl)phosphine oxides 10 derivatives were studied against several human cell lines: A549 (carcinomic human alveolar basal epithelial cell), SKOV3 (human ovarian carcinoma), and HEK293 (human embryonic kidney). Furthermore, in order to analyze the selective cytotoxicity facing exclusively cancerous cell lines, toxicity against a non-cancerous cell line (MRC-5, lung fibroblast cells) was also evaluated (Table 3). The cell counting kit (CCK-8) assay was employed to assess the growth inhibition and cell proliferation inhibitory activities of the compounds, which are described in Table 3 as IC50 values.
(§2) Cells were cultured according to the supplier’s instructions. Cells were seeded in 96-well plates at a density of 1.5–3 × 10^3 cells per well and incubated overnight in 0.1 mL of media supplied with 10% Fetal Bovine Serum (Lonza) in a 5% CO2 incubator at 37 °C. On day 2, drugs were added and the samples were incubated for 48h. After treatment, 10 μL of the cell counting kit-8 was added into each well for an additional 2h incubation at 37 °C. The absorbance of each well was determined by an Automatic Elisa Reader System at 450 nm wavelength (deducting 620 nm). CPT was used as the positive control.
A general note: Formazan colour is commonly taken as a measure of viable cells.

The subject of data set [2] is A549 (carcinomic human alveolar basal epithelial cell). Briefly: CCK-8 cytotoxicity assay, A549. It counts as cell-based. To be noted: for IC50: A549 cells, 48h, CCK-8.
Description: as §1, §2

The target of the next data set is T1, human TOP1 (Homo sapiens, UniProt P11387).
T1 construct: made in house; host or cells: Saccharomyces cerevisiae TOP1 null strain RS190, plasmid pHT143 (GAL promoter)
T1 sequence (P11387 1-765): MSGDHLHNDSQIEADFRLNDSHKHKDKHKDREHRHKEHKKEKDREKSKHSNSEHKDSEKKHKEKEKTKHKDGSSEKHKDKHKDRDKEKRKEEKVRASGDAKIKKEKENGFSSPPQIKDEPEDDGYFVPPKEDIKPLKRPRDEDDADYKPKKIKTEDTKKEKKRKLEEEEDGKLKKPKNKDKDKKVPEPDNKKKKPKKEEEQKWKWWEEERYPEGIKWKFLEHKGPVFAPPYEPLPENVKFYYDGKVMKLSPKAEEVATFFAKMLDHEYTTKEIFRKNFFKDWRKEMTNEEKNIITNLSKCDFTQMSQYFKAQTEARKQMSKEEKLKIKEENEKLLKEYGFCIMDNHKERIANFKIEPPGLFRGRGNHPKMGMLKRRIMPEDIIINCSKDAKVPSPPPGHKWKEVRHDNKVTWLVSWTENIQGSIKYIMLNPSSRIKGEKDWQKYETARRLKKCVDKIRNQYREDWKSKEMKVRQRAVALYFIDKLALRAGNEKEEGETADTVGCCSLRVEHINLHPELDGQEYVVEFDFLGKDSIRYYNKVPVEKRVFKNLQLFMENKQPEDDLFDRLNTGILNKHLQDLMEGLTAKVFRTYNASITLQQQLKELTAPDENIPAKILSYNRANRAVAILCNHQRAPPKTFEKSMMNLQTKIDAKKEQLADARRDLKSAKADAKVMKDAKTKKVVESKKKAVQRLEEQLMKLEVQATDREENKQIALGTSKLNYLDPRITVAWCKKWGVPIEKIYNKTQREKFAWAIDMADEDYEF
Briefly: TOP1 supercoiled plasmid DNA relaxation assay. It counts as biochemical. The note with it: for TOP1 Inhibition 1 min: 1 min reaction; for TOP1 Inhibition 1 min / TOP1 Inhibition 3 min / TOP1 Inhibition 5 min: compounds at 100 μM, semiquantitative; for TOP1 Inhibition 3 min: 3 min reaction; for TOP1 Inhibition 5 min: 5 min reaction. The text has this: The effect of the previously prepared compounds as TOP1 inhibitors was studied. A conventional supercoiled plasmid relaxation assay was used to determine if the newly fused tetrahydroindenoquinolines 8, more aromatic indenoquinolines 9, and carbonyl derivatives 10 with phosphine oxide substituents inhibit human TOP1 activity by converting supercoiled plasmid DNA to its relaxed form. In these experiments, compound samples were mixed with the enzyme followed by the addition of a supercoiled plasmid DNA substrate, and incubation continued for increasing time intervals (1 min, 3 min, and 5 min). The reaction was terminated by the addition of SDS. DNA relaxation products were then resolved by 1% agarose electrophoresis gel and visualized by gel red staining.
The yeast Saccaromyces cerevisiae TOP1 null strain RS190, which was used for the expression of recombinant human TOP1, was a kind gift from R. Sternglanz (State University of New York, Stony Brook, NY, USA). Plasmid pHT143, for the expression of recombinant TOP1 under the control of an inducible GAL promoter, was described. The plasmids pHT143 were transformed into the yeast S. cerevisiae strain RS190. The proteins were expressed and purified by affinity chromatography essentially as described. The protein concentrations were estimated from Coomassie blue-stained SDS/polyacrylamide gels by comparison to serial dilutions of bovine serum albumin (BSA).
TOP1 activity was assayed using a DNA relaxation assay by incubating 110 ng/mL of TOP1 with 0.5 µg of negatively supercoiled pUC18 in […] of reaction buffer (20 mM Tris HCl, 0.1 mM Na2EDTA, 10 mM MgCl2, […] acetylated BSA, and 150 mM KCl, pH 7.5). The effect of the synthesized phosphorylated derivatives 8, 9, and 10 on the TOP1 activity was measured by adding different concentrations of the compounds, at different time points, as indicated in the text. The reactions were performed at 37 °C stopped by the addition of 0.5% SDS after the indicated time intervals. The samples were protease-digested and electrophoresed in a horizontal 1% agarose gel in 1xTBE (50 mM Tris, 45 mM boric acid, 1 mM EDTA) at 25V during 18h. The gel was stained with gel red (BIOTIUM, 5 mg/mL), destained with water, and photographed under UV illumination. Since all drugs were dissolved in dimethyl sulfoxide (DMSO), a […] control sample containing the same DMSO concentration as the samples incubated with the drugs was included in all experiments.

Data set [3] concerns MRC-5, lung fibroblast cells. As to the kind of experiment: CCK-8 cytotoxicity assay, MRC5. To be noted: Homo sapiens; MRC5 non-cancerous cells, 48h, CCK-8. It counts as cell-based, human.
Description: as §1, §2

Data set [4] deals with HEK293 (human embryonic kidney). As to the kind of experiment: CCK-8 cytotoxicity assay, HEK293. The note with it: HEK293 cells, 48h. The format is cell-based.
Description: as §1, §2

Structures are written as SMILES. A value given as a limit tells only on which side of the number the result lay.

By IC50 is commonly meant the midpoint of a concentration-inhibition curve. Read a low IC50 as higher potency.

Turning to `O=P(c1ccccc1)(c1ccccc1)c1ccc2c(c1)C1c3ccccc3CC1C(c1ccc(F)c(F)c1)N2` (centres unmarked) [Compound 8e, Diphenyl(6-(3,4-difluorophenyl)-6,6a,7,11b-tetrahydro-5H-indeno[2,1-c]quinolin-2-yl)phosphine oxide], the IC50 in data set [1] was 13.2 ± 2.79 µM; in data set [2] (Homo sapiens, A549, 48 h), above 50 µM; in data set [3], above 50 µM; in data set [4], above 50 µM. Moreover, the “TOP1 Inhibition 1 min” value on human TOP1 is given as “++”. For the same compound, the “TOP1 Inhibition 3 min” value at human TOP1 was “++”. Also, the “TOP1 Inhibition 5 min” value on human TOP1 is given as “++”.
Regarding `O=P(c1ccccc1)(c1ccccc1)c1ccc2c(c1)C1c3ccccc3CC1C(c1ccc(F)cc1F)N2` (centres unmarked) [Compound 8f, Diphenyl(6-(2,4-difluorophenyl)-6,6a,7,11b-tetrahydro-5H-indeno[2,1-c]quinolin-2-yl)phosphine oxide], the IC50 is 31 ± 3.17 µM in data set [1]; above 50 µM in data set [2] (Homo sapiens, A549, 48 h); above 50 µM in data set [3]; above 50 µM in data set [4]. On human TOP1, the “TOP1 Inhibition 1 min” value is recorded as “+ (weak inhibition)”. For the same compound, the “TOP1 Inhibition 3 min” value on human TOP1 is listed as “+ (weak inhibition)”. Also, the “TOP1 Inhibition 5 min” value on human TOP1 is “+ (weak inhibition)”.
As to `O=P(c1ccccc1)(c1ccccc1)c1ccc2nc(-c3ccc(F)cc3)c3c(c2c1)-c1ccccc1C3` [Compound 9c], the IC50 is above 50 µM in data set [1]; above 50 µM in data set [2] (Homo sapiens, A549, 48 h); above 50 µM in data set [3]; above 50 µM in data set [4]. Also, on human TOP1, the “TOP1 Inhibition 1 min” value was “+ (weak inhibition)”. For the same compound, the “TOP1 Inhibition 3 min” value at human TOP1 is “+ (weak inhibition)”. In addition, the “TOP1 Inhibition 5 min” value on human TOP1 is “+ (weak inhibition)”.
Turning to `O=P(c1ccccc1)(c1ccccc1)c1ccc2nc(-c3ccc(Br)cc3)c3c(c2c1)-c1ccccc1C3` [Compound 9j, Diphenyl(6-(4-bromophenyl)-7H-indeno[2,1-c]quinolin-2-yl)phosphine oxide], the IC50 in data set [1] is above 50 µM; in data set [2] (listed as 9k), above 50 µM; in data set [2] (Homo sapiens, A549, 48 h), 42.3 ± 2.09 µM; in data set [3] it was above 50 µM; in data set [4] it was above 50 µM. The “Cytotoxicity against A549 (in words)” value in data set [2] is recorded as “slight cytotoxicity”. Further, the “TOP1 Inhibition 1 min” value at human TOP1 is listed as “+ (weak inhibition)”. Also, on human TOP1, the “TOP1 Inhibition 3 min” value was “+ (weak inhibition)”. The “TOP1 Inhibition 5 min” value at human TOP1 was “+ (weak inhibition)”.
`O=P(c1ccccc1)(c1ccccc1)c1ccc2c(c1)C1c3ccccc3CC1C(c1cccc(F)c1)N2` (centres unmarked) [Compound 8d, Diphenyl(6-(3-fluorophenyl)-6,6a,7,11b-tetrahydro-5H-indeno[2,1-c]quinolin-2-yl)phosphine oxide]: the IC50 was above 50 µM in data set [1]; 43.1 ± 12.1 µM in data set [2] (Homo sapiens, A549, 48 h); above 50 µM in data set [3]; above 50 µM in data set [4]. Further, the “TOP1 Inhibition 1 min” value at human TOP1 is on record as “++”. Moreover, the “TOP1 Inhibition 3 min” value at human TOP1 is “++”. For the same compound, the “TOP1 Inhibition 5 min” value on human TOP1 was “++”.
As to `O=P(c1ccccc1)(c1ccccc1)c1ccc2nc(-c3ccccc3)c3c(c2c1)-c1ccccc1C3` [Compound 9a, Diphenyl(6-phenyl-7H-indeno[2,1-c]quinolin-2-yl)phosphine oxide], the half-inhibitory concentration (IC50) in data set [1] was above 50 µM; in data set [2] (Homo sapiens, A549, 48 h), above 50 µM; in data set [3], above 50 µM; in data set [4], above 50 µM. In addition, the “Persistence of TOP1 inhibition over the time course” value on human TOP1 (100 μM, in words) is recorded as “more persistent inhibition”. Besides, the “TOP1 Inhibition 1 min” value on human TOP1 is on record as “+ (weak inhibition)”. Moreover, the “TOP1 Inhibition 3 min” value at human TOP1 is “++”. Moreover, the “TOP1 Inhibition 5 min” value on human TOP1 is given as “++”.
With `O=C1c2ccccc2-c2c1c(-c1cccc(F)c1)nc1ccc(P(=O)(c3ccccc3)c3ccccc3)cc21` [Compound 10d, (6-(3-Fluorophenyl)-7-oxo-7H-indeno[2,1-c]quinolin-2-yl)diphenylphosphine oxide], the half-maximal inhibitory concentration (IC50) in data set [1] is above 50 µM; in data set [2] (Homo sapiens, A549, 48 h) it was above 50 µM; in data set [3] it was above 50 µM; in data set [4], above 50 µM. The “TOP1 Inhibition 1 min” value at human TOP1 was “+ (weak inhibition)”. Also, on human TOP1, the “TOP1 Inhibition 3 min” value is “+ (weak inhibition)”. The “TOP1 Inhibition 5 min” value at human TOP1 is on record as “+ (weak inhibition)”.
As to `O=C1c2ccccc2-c2c1c(-c1ccc(F)c(F)c1)nc1ccc(P(=O)(c3ccccc3)c3ccccc3)cc21` [Compound 10e], the IC50 in data set [1] was above 50 µM; in data set [2] (Homo sapiens, A549, 48 h), above 50 µM; in data set [3], above 50 µM; in data set [4] it was above 50 µM. In addition, at human TOP1, the “TOP1 Inhibition 1 min” value is “++”. Also, the “TOP1 Inhibition 3 min” value on human TOP1 is “++”. The “TOP1 Inhibition 5 min” value at human TOP1 is given as “++”.
Turning to `O=P(c1ccccc1)(c1ccccc1)c1ccc2nc(-c3ccc(F)cc3F)c3c(c2c1)-c1ccccc1C3` [Compound 9f, Diphenyl(6-(2,4-difluorophenyl)-7H-indeno[2,1-c]quinolin-2-yl)phosphine oxide], the IC50 in data set [1] is above 50 µM; in data set [2] (Homo sapiens, A549, 48 h) it was 41.7 ± 7.25 µM; in data set [3], above 50 µM; in data set [4] it was above 50 µM. For the same compound, in data set [2], the “Cytotoxicity against A549 (in words)” value is “slight cytotoxicity”. In addition, the “TOP1 Inhibition 1 min” value on human TOP1 was “++”. Besides, the “TOP1 Inhibition 3 min” value on human TOP1 is listed as “++”. In addition, the “TOP1 Inhibition 5 min” value on human TOP1 is given as “++”.
For `O=P(c1ccccc1)(c1ccccc1)c1ccc2nc(-c3cccc(F)c3)c3c(c2c1)-c1ccccc1C3` [Compound 9d, Diphenyl(6-(3-fluorophenyl)-7H-indeno[2,1-c]quinolin-2-yl)phosphine oxide], the half-maximal inhibitory concentration (IC50) was above 50 µM in data set [1]; above 50 µM in data set [2] (Homo sapiens, A549, 48 h); above 50 µM in data set [3]; above 50 µM in data set [4]. Further, the “TOP1 Inhibition 1 min” value at human TOP1 is given as “+ (weak inhibition)”. In addition, the “TOP1 Inhibition 3 min” value at human TOP1 is reported as “+ (weak inhibition)”. The “TOP1 Inhibition 5 min” value at human TOP1 is on record as “+ (weak inhibition)”.
With `COc1ccc(-c2nc3ccc(P(=O)(c4ccccc4)c4ccccc4)cc3c3c2Cc2ccccc2-3)cc1` [Compound 9h, Diphenyl(6-(4-methoxyphenyl)-7H-indeno[2,1-c]quinolin-2-yl)phosphine oxide], on human TOP1, the “TOP1 Inhibition 1 min” value was “++”, the “TOP1 Inhibition 3 min” value is listed as “++” and the “TOP1 Inhibition 5 min” value is “++”.

(Values after paper PMC11678328, “Phosphine Oxide Indenoquinoline Derivatives: Synthesis and Biological Evaluation as Topoisomerase I Inhibitors and Antiproliferative Agents” (Molecules, 2024).)
